Columns and labels:
[1] = tested on: HCT-116 Human colorectal carcinoma; experiment: Secondary cytotoxicity test, HCT-116; format: cell-based
Experimental: (§1) Particularly, the cell growth inhibition effect was measured by WST-1 cell proliferation assay [http://www.roche-applied-science.com/PROD_INF/MANUALS/CELL_MAN/apoptosis—087—088.pdf]. The compound of formula 1 was loaded in a 384-well cell culture plate. Three types of glioblastoma multiform cell lines [proneural subtype (559T), mesenchymal subtype (592T), and classical subtype (626T)], normal human astrocytes (NHA), a lung cancer cell line (A549), and a glioblastoma multiform cell line (U87MG) were distributed in the plate at the density of 4.5×10^3 cells/well, and the medium was filled up to make 50 μl per well. At this time, the concentration of the solvent DMSO for the compound of formula 1 was no more than 0.2%. After culturing the cells for 72 hours, 5 mg/ml of WST-1 reagent was added by 5 μl per well, followed by reaction for 3˜4 hours. Then OD450 was measured to investigate the effect of the compound of formula 1 on cell proliferation.
(§2) To investigate the cell growth inhibition effect of the compound of formula 1 of the present invention (azathioprine) in many different cell lines, secondary cytotoxicity test was performed with the cell lines listed in Table 5 by the same manner as described in Example 1.

[2] = tested on: GBM #1 glioblastoma multiform patient originated cells; experiment: Neurosphere formation inhibition, GBM #1; format: cell-based, human; set-up: key to inhibition of neurosphere formation: S: strong effect; I: intermediate effect; R: rare effect
Experimental: (§3) Particularly, to investigate neurosphere formation, glioblastoma multiform cells were cultured for a certain time and the cells were distributed again in culture vessels, followed by additional culture. Then, the number of newly generated neurospheres was measured. First, the glioblastoma multiform patient originated cells were sub-cultured, which were distributed in a 96-well plate (20, 50, and 200 cells in 50 μl of culture medium/well). 2, 6, and 20 μM of the compound of formula 1 (azathioprine) and the compound of Comparative Example 1 (Temodal) were treated thereto by 50 μl per well to make the final concentrations of 1, 3, and 10 μM. Then, the compound of formula 1 (azathioprine) and the compound of Comparative Example 1 (Temodal) were added to 50 μl of cell culture medium with the same concentrations as the above once a week, which were then cultured for 7˜23 days. When neurosphere was formed at least 50 μm in the control group not treated with the compound, the number of neurospheres in each well was counted to compare the neurosphere formation before and after the treatment of the compound of formula 1 (azathioprine) and the compound of Comparative Example 1 (Temodal).
The glioblastoma multiform cells used in this experiment were classified into 4 types, which are type A, type B, type C, and type D, according to the gene expression pattern. Methylation of MGMT (O6-me-G methyltransferase), the DNA repair protein, was confirmed in each cell line. At that time, type A [GBM #1, #2, #3] was proneural subtype, type B [GBM #4, #5, #6, #7] was classical subtype, type C [GBM #8] was mesenchymal subtype, and type D [GBM #9, #10] was non-classified glioblastoma multiform.

[3] = tested on: classical subtype (626T) glioblastoma multiform cells; settings: concentrations starting from 100 μM, culture for 7 days
Experimental: (§4) Thymidine incorporation assay was performed to investigate the cell growth inhibition effect of the compound of the present invention. Three subtypes of glioblastoma multiform cells [proneural subtype (559T), mesenchymal subtype (592T), classical subtype (626T)] and normal human astrocytes (NHA) were N cultured in a 96-well plate at the density of 1×10^4 cells/well, to which 2 μCi/well of 3H-thymidine was added. Azathioprine was added thereto at different concentrations starting from 100 μM, followed by culture for 7 days. 200 μl/well of scintillation fluid (biofluor) was added thereto and count per minute (cpm) was calculated.

[4] = tested on: mesenchymal subtype (592T) glioblastoma multiform cells; settings: concentrations starting from 100 μM, culture for 7 days
Experimental: as §4

[5] = tested on: proneural subtype (559T) glioblastoma multiform cells; settings: concentrations starting from 100 μM, culture for 7 days
Experimental: as §4

[6] = tested on: GBM #7 glioblastoma multiform patient originated cells; experiment: Neurosphere formation inhibition, GBM #7; format: cell-based, human; set-up: key: S: strong effect; I: intermediate effect; R: rare effect; settings: GBM #7, type B (classical), Azathioprine 1 μM, duration 23 day
Experimental: as §3
The glioblastoma multiform cells used in this experiment were classified into 4 types, which are type A, type B, type C, and type D, according to the gene expression pattern. […]

[7] = tested on: cells of lung cancer with brain metastasis transplanted in the mouse brain; experiment: Animal test with cells of lung cancer with brain metastasis, survival; format: in vivo; settings: azathioprine 2 mg/kg oral every day after day 11, Temodal (TMZ) 65 mg/kg oral 5 days from day 17
Experimental: The cells of lung cancer with brain metastasis were obtained from Samsung Hospital (Seoul) and cultured. The cultured cells (2×10^5/5 μl) were transplanted in the mouse brain. 17 days later, Temodal administration (65 mg/kg, oral administration) began, which continued for 5 days. The compound of formula 1 of the present invention (azathioprine) was co-treated to the mouse by oral-administration at the dose of 2 mg/kg every day after 11 days from the transplantation of the cells of lung cancer with brain metastasis in the mouse brain. Then, the average survival period was investigated.

[8] = tested on: normal human astrocytes (NHA); settings: azathioprine 10 μM, 24 hours later, before and after the treatment
[9] = tested on: glioblastoma multiform cells transplanted in the brain of a mouse; experiment: Glioblastoma multiform orthotopic animal model, survival; format: in vivo
Experimental: Following experiment was performed to investigate the radiosensitizing effect and chemosensitizing effect of the compound of formula 1 (azathioprine) in the glioblastoma multiform orthotopic animal model.
Particularly, to investigate the resistance against Temodal or radiotherapy in glioblastoma multiform, glioblastoma multiform cells were cultured. The cultured cells (2×10^5/5 μl) were transplanted in the brain of a mouse. 17 days later, the administration of Temodal (65 mg/kg, oral-administration) or radiotherapy (2 Gy) began, which continued for 5 days. The average survival period was investigated. […] For the comparison, the survival period of the group treated with “Avastin”, the well-known anticancer agent, is also presented.
Glioblastoma multiform, glioblastoma multiform cells were cultured. The cultured cells (2×10^5/5 μl) were transplanted in the brain of a mouse. 17 days later, the administration of Temodal (65 mg/kg, oral-administration) or radiotherapy (2 Gy) began, which continued for 5 days. Unlike the above experiment, the compound of formula 1 of the present invention (azathioprine) was co-treated to the mouse by oral-administration at the dose of 20 mg/kg every day after 11 days from the glioblastoma multiform transplantation in the mouse brain. Then, the average survival period was investigated.

[10] = tested on: PC3 Human prostate adenocarcinoma; experiment: Secondary cytotoxicity test, PC3; format: cell-based; settings: PC-3
Experimental: as §1, §2

Cn1cnc([N+](=O)[O-])c1Sc1ncnc2nc[nH]c12 [Azathioprine, 6-(1-methyl-4-nitro-1H-imidazol-5-ylthio)-7H-purine]
IC50 [1]: 5.5 µM | inhibition of neurosphere formation ([2]; GBM #1, type A (proneural), Azathioprine 1 μM, duration 7 day): R | neurosphere formation ([2]; GBM#1, azathioprine raised to 10 μM): significantly inhibited | cell growth inhibition effect (3H-thymidine incorporation) [3]: significant cell growth inhibition effect | cell growth inhibition effect (3H-thymidine incorporation) [4]: significant cell growth inhibition effect | cell growth inhibition effect (3H-thymidine incorporation) [5]: significant cell growth inhibition effect | inhibition of neurosphere formation [6]: S | Average Survival Period [7]: 63 days | Survival Period Extension Rate (%) [7]: 59-70% | concentrations of azathioprine metabolites (TGMP, MeTIMP, MeTGMP, TIMP) in cell lysate [8]: not much changed | Average Survival Period ([9]; radiotherapy (2 Gy) 5 days from day 17 + azathioprine 20 mg/kg oral every day after day 11, control 28 days): 41 days | Survival Period Extension Rate (%) ([9]; radiotherapy (2 Gy) 5 days from day 17 + azathioprine 20 mg/kg oral every day after day 11, vs. control): 44% | IC50 [10]: 6.7 µM

Reference: US20150141439A1, “PHARMACEUTICAL COMPOSITION FOR THE PREVENTION OR TREATMENT OF BRAIN TUMOR OR TEMODAL RESISTANT GLIOBLASTOMA MULTIFORM COMPRISING AZATHIOPRINE AS AN ACTIVE INGREDIENT” (KOREA RESEARCH INSTITUTE OF CHEMICAL TECHNOLOGY, priority 2012, published 2015)
